Where two headings read alike, the source gives them in different places.
What was measured:
E. coli EN002 = assay: MIC, DtoIC; type: cell-based, Escherichia coli; details: Escherichia coli, read-out: MIC
P. aeruginosa EN004 = assay: MIC, WT (EN004 = EN0004); type: cell-based, Pseudomonas aeruginosa
K. pneumoniae EN006 = assay: MIC, WT (EN006 = EN0006, ATCC 13883); type: cell-based, Klebsiella pneumoniae; details: Klebsiella pneumoniae, read-out: MIC
A. baumannii EN007 = assay: MIC, WT (EN007 = EN0007); type: cell-based, Acinetobacter baumannii
S. aureus EN008 = assay: MIC, Gram-positive control; type: cell-based, Staphylococcus aureus; details: Staphylococcus aureus, read-out: MIC
E. coli EN012 = assay: MIC, WT; type: cell-based, Escherichia coli; details: Escherichia coli, read-out: MIC
P. aeruginosa EN014 = assay: MIC, WT; type: cell-based, Pseudomonas aeruginosa; details: Pseudomonas aeruginosa, read-out: MIC
A. baumannii EN016 = assay: MIC, WT; type: cell-based, Acinetobacter baumannii; details: Acinetobacter baumannii, read-out: MIC
E. coli EN0134 = assay: MIC, AmpC (CMY-4); type: cell-based; details: Escherichia coli, EN0134, combination didanosine+trimethoprim+uridine, Table 20; read-out: MIC
E. coli EN0136 = assay: MIC, ESBL (CTX-M-2); type: cell-based; details: Escherichia coli, read-out: MIC
E. coli EN0137 = assay: MIC, ESBL (CTX-M-15); type: cell-based; details: Escherichia coli, EN0137, combination didanosine+trimethoprim+uridine, Table 20; read-out: MIC
E. coli EN0235 = assay: microbe, parasite or virus in culture; type: cell-based; details: Escherichia coli
K. pneumoniae EN0140 = assay: MIC, AmpC (DHA-1); type: cell-based; details: Klebsiella pneumoniae, EN0140, combination didanosine+trimethoprim+uridine, Table 20; read-out: MIC
K. pneumoniae EN0145 = assay: MIC, KPC-2; type: cell-based; details: Klebsiella pneumoniae, read-out: MIC
K. pneumoniae EN0244 = assay: MIC, colistinR; type: cell-based; details: Klebsiella pneumoniae, EN0244, combination didanosine+trimethoprim+uridine, Table 20; read-out: MIC
K. pneumoniae EN0245 = assay: MIC, colistinR; type: cell-based; details: Klebsiella pneumoniae, EN0245, combination didanosine+trimethoprim+uridine, Table 20; read-out: MIC
K. pneumoniae EN0249 = assay: MIC, colistinR; type: cell-based; details: Klebsiella pneumoniae, EN0249, combination didanosine+trimethoprim+uridine, Table 20; read-out: MIC
S. flexneri APV00907 = assay: MIC and antibiogram; type: cell-based; details: Shigella flexneri, Table 22A
Text: Inhibition of Heliobacter is important in view of increasing resistance and its association to gastric cancer.

S. sonnei APV00908 = assay: MIC and antibiogram; type: cell-based; details: Shigella sonnei, Table 22A
[1] = combination AZT+trimethoprim+uridine, Table 17B
[2] = combination FdUrd+trimethoprim+uridine, Table 19
[3] = combination didanosine+trimethoprim+uridine, Table 20

O=c1ccn([C@@H]2O[C@H](CO)[C@@H](O)[C@H]2O)c(=O)[nH]1 [Uridine, uridine]
MIC (E. coli EN002; EN002, Combination 2 AZT+trimethoprim+uridine+thymidine, Table 16): 12.5 µg/mL | MIC (E. coli EN002; EN002, combination AZT+trimethoprim+uridine, Table 6): 4 µg/mL | MIC (E. coli EN002; EN002, combination FdUrd+trimethoprim+uridine, Table 8): 6 µg/mL | MIC (E. coli EN002; EN002, combination didanosine+trimethoprim+uridine, Table 10): 6 µg/mL | MIC (P. aeruginosa EN004; Pseudomonas aeruginosa, EN004, Combination 1 AZT+trimethoprim+uridine, Table 16, read-out: MIC): > 400 µg/mL | MIC (P. aeruginosa EN004; Pseudomonas aeruginosa, EN004, Combination 2 AZT+trimethoprim+uridine+thymidine, Table 16, read-out: MIC): > 400 µg/mL | MIC (P. aeruginosa EN004; Pseudomonas aeruginosa, EN004, combination AZT+trimethoprim+uridine, Table 6, read-out: MIC): > 1000 µg/mL | MIC (P. aeruginosa EN004; Pseudomonas aeruginosa, EN004, combination FdUrd+trimethoprim+uridine, Table 8, read-out: MIC): > 400 µg/mL | MIC (P. aeruginosa EN004; Pseudomonas aeruginosa, EN004, combination didanosine+trimethoprim+uridine, Table 10, read-out: MIC): > 400 µg/mL | MIC (P. aeruginosa EN004; [1]): >400 µg/mL | MIC (P. aeruginosa EN004; [2]): >400 µg/mL | MIC (P. aeruginosa EN004; [3]): >400 µg/mL | MIC (K. pneumoniae EN006; EN006, Combination 1 AZT+trimethoprim+uridine, Table 16): 12.5 µg/mL | MIC (K. pneumoniae EN006; EN006, combination AZT+trimethoprim+uridine, Table 6): 16 µg/mL | MIC (A. baumannii EN007; Acinetobacter baumannii, EN007, Combination 1 AZT+trimethoprim+uridine, Table 16, read-out: MIC): > 400 µg/mL | MIC (A. baumannii EN007; Acinetobacter baumannii, EN007, Combination 2 AZT+trimethoprim+uridine+thymidine, Table 16, read-out: MIC): > 400 µg/mL | MIC (A. baumannii EN007; Acinetobacter baumannii, EN007, combination AZT+trimethoprim+uridine, Table 6, read-out: MIC): > 1000 µg/mL | MIC (A. baumannii EN007; Acinetobacter baumannii, EN007, combination FdUrd+trimethoprim+uridine, Table 8, read-out: MIC): > 400 µg/mL | MIC (A. baumannii EN007; Acinetobacter baumannii, EN007, combination didanosine+trimethoprim+uridine, Table 10, read-out: MIC): > 400 µg/mL | MIC (A. baumannii EN007; [1]): >400 µg/mL | MIC (A. baumannii EN007; [2]): >400 µg/mL | MIC (A. baumannii EN007; [3]): >400 µg/mL | MIC (S. aureus EN008; EN008, Combination 2 AZT+trimethoprim+uridine+thymidine, Table 16): > 400 µg/mL | MIC (S. aureus EN008; EN008, combination FdUrd+trimethoprim+uridine, Table 8): < 0.8 µg/mL | MIC (E. coli EN012; EN012, combination FdUrd+trimethoprim+uridine, Table 8): 3 µg/mL | MIC (E. coli EN012; EN012, combination didanosine+trimethoprim+uridine, Table 10): 6 µg/mL | MIC (P. aeruginosa EN014; EN014, Combination 1 AZT+trimethoprim+uridine, Table 16): > 400 µg/mL | MIC (P. aeruginosa EN014; EN014, Combination 2 AZT+trimethoprim+uridine+thymidine, Table 16): > 400 µg/mL | MIC (P. aeruginosa EN014; EN014, combination AZT+trimethoprim+uridine, Table 6): > 1000 µg/mL | MIC (P. aeruginosa EN014; EN014, combination FdUrd+trimethoprim+uridine, Table 8): > 400 µg/mL | MIC (P. aeruginosa EN014; EN014, combination didanosine+trimethoprim+uridine, Table 10): > 400 µg/mL | MIC (A. baumannii EN016; EN016, Combination 1 AZT+trimethoprim+uridine, Table 16): > 400 µg/mL | MIC (A. baumannii EN016; EN016, Combination 2 AZT+trimethoprim+uridine+thymidine, Table 16): > 400 µg/mL | MIC (A. baumannii EN016; EN016, combination AZT+trimethoprim+uridine, Table 6): > 1000 µg/mL | MIC (A. baumannii EN016; EN016, combination FdUrd+trimethoprim+uridine, Table 8): 400 µg/mL | MIC (A. baumannii EN016; EN016, combination didanosine+trimethoprim+uridine, Table 10): > 400 µg/mL | MIC (E. coli EN0134): > 400 µg/mL | MIC (E. coli EN0136; EN0136, combination AZT+trimethoprim+uridine, Table 17B): 13 µg/mL | MIC (E. coli EN0136; EN0136, combination didanosine+trimethoprim+uridine, Table 20): > 400 µg/mL | MIC (E. coli EN0137): > 400 µg/mL | MIC (E. coli EN0235; EN0235, combination FdUrd+trimethoprim+uridine, Table 19): 6 µg/mL | MIC (E. coli EN0235; EN0235, combination didanosine+trimethoprim+uridine, Table 20): 13 µg/mL | MIC (K. pneumoniae EN0140): > 400 µg/mL | MIC (K. pneumoniae EN0145; EN0145, combination FdUrd+trimethoprim+uridine, Table 19): > 400 µg/mL | MIC (K. pneumoniae EN0145; EN0145, combination didanosine+trimethoprim+uridine, Table 20): > 400 µg/mL | MIC (K. pneumoniae EN0244): > 400 µg/mL | MIC (K. pneumoniae EN0245): > 400 µg/mL | MIC (K. pneumoniae EN0249): > 400 µg/mL | MIC (S. flexneri APV00907; APV00907, combination AZT+trimethoprim+uridine): 200 µg/mL | MIC (S. flexneri APV00907; APV00907, combination FdUrd+trimethoprim+uridine): > 400 µg/mL | MIC (S. sonnei APV00908; APV00908, combination AZT+trimethoprim+uridine): 3 µg/mL | MIC (S. sonnei APV00908; APV00908, combination FdUrd+trimethoprim+uridine): > 400 µg/mL

Source: patent US10828317B2, “Method of treating bacterial infections” (priority 2016, dated 2020)
